Assays:
[1] = pharmacokinetic study in adult wild type FVB mice, oral; format: in vivo; conditions: for Kp / Cmax / MRT / Tmax: male, mouse
Description: TEC-1 was administered at doses of 2, 6, and 20 mg/kg for oral (suspended in 0.5% methyl cellulose aqueous solution) to male FVB mice (aged 8 weeks, 3 mice per a time point). After 0.5–120 h administration, blood and brain samples were collected. Blood samples with heparin were centrifuged for plasma collection. Brain samples were homogenized in saline 20% (w/v). The samples were deproteinized with acetonitrile and following by centrifugation, and the supernatants were analyzed by LC/MS/MS to obtain TEC-1 concentrations of the plasma and brain.

[2] = pharmacokinetic study in neonatal/juvenile FVB mice, intraperitoneal; format: in vivo; conditions: for Kp / Cmax / MRT / Tmax: male, mouse, ip; for Kp: brain/plasma, read-out: Kp (AUC0–120h ratio)
Description: TEC-1 was intraperitoneally administered at doses of 0.2, 0.6, and 2 mg/kg (suspended in saline/0.9% NaCl solution) to male FVB mice (10 days old, 3 mice per a time point). After administration, brain samples and blood samples with heparinized capillary tubes from heart were collected. Blood samples were centrifuged to obtain the plasma fraction. Brain samples were homogenized in 20% (w/v) saline. The samples were deproteinized with acetonitrile followed by centrifugation and the supernatants were analyzed by LC/MS/MS to obtain TEC-1 concentrations of the plasma and brain.

[3] = brain, 2 mg/kg oral single, adult FVB mice
[4] = brain, 6 mg/kg oral single, adult FVB mice
[5] = brain, 20 mg/kg oral single, adult FVB mice
[6] = plasma, 2 mg/kg oral single, adult FVB mice
[7] = plasma, 6 mg/kg oral single, adult FVB mice
[8] = plasma, 20 mg/kg oral single, adult FVB mice
[9] = brain, 0.2 mg/kg i.p. single, juvenile FVB mice
[10] = brain, 0.6 mg/kg i.p. single, juvenile FVB mice
[11] = brain, 2 mg/kg i.p. single, juvenile FVB mice
[12] = plasma, 0.2 mg/kg i.p. single, juvenile FVB mice
[13] = plasma, 0.6 mg/kg i.p. single, juvenile FVB mice
[14] = plasma, 2 mg/kg i.p. single, juvenile FVB mice

With `Cc1cn2nc(-c3nc4ccc(N5CCN(C)CC5)cc4c(=O)[nH]3)cc2c(C)n1` [TEC-1, 2-(4,6-dimethylpyrazolo[1,5-a]pyrazin-2-yl)-6-(4-methylpiperazin-1-yl)quinazolin-4(3H)-one] the “AUC0–24 h” value [1, 3] was 2234.1 ng･h/g, the “AUC0–120 h” value [1, 3] was 2433.7 ng･h/g and the “AUC0–24 h” value [1, 4] was 3956.7 ng･h/g. For the same compound, the “AUC0–120 h” value [1, 4] was 8011.1 ng･h/g, the “AUC0–24 h” value [1, 5] was 6322.1 ng･h/g and the “AUC0–120 h” value [1, 5] was 29429.3 ng･h/g. It also gave a Kp ([1]; brain and plasma, other: intraperitoneal (juvenile) and oral (adult), juvenile (intraperitoneal) and adult (oral) FVB mice, read-out: Kp values (ratio of the compound in the brain and plasma)) greater than 1, a Kp ([1]; brain/plasma, 2 mg/kg oral single, adult FVB mice, read-out: Kp (AUC0–120h ratio)) of 1.2 and a Kp ([1]; brain/plasma, 6 mg/kg oral single, adult FVB mice, read-out: Kp (AUC0–120h ratio)) of 1.2. It also gave a Kp ([1]; brain/plasma, 20 mg/kg oral single, adult FVB mice, read-out: Kp (AUC0–120h ratio)) of 1.8, a Cmax [1, 3] of 168 ng/g and an MRT [1, 3] of 10.7 h. For the same compound, the Tmax [1, 3] was 1 h, the Cmax [1, 4] was 195 ng/g and the MRT [1, 4] was 29.5 h. It also gave a Tmax [1, 4] of 7 h, a Cmax [1, 5] of 360 ng/g and an MRT [1, 5] of 54.6 h. It also gave a Tmax [1, 5] of 32 h, an MRT [1, 6] of 10.7 h and a Tmax [1, 6] of 3 h. The Cmax ([1]; plasma, 2 mg/kg oral single, adult FVB mice, mean, n = 3) was 0.136 µg/mL, the Cmax [1, 7] was 0.157 µg/mL and the MRT [1, 7] was 33.1 h. The Tmax [1, 7] was 3 h, the Cmax [1, 8] was 0.222 µg/mL and the MRT [1, 8] was 48.5 h. For the same compound, the Tmax [1, 8] was 16 h, the “AUC0–24 h” value [1, 6] was 1906.7 ng･h/mL and the “AUC0–120 h” value [1, 6] was 2095.9 ng･h/mL. The “AUC0–24 h” value [1, 7] was 3100.3 ng･h/mL, the “AUC0–120 h” value [1, 7] was 6647.9 ng･h/mL and the “AUC0–24 h” value [1, 8] was 4950.5 ng･h/mL. For the same compound, the “AUC0–120 h” value [1, 8] was 16350.5 ng･h/mL, the “AUC0–24 h” value [2, 9] was 69.7 ng･h/g and the “AUC0–120 h” value [2, 9] was 87.7 ng･h/g. The “AUC0–24 h” value [2, 10] was 600.3 ng･h/g, the “AUC0–120 h” value [2, 10] was 716.7 ng･h/g and the “AUC0–24 h” value [2, 11] was 3547.9 ng･h/g. The “AUC0–120 h” value [2, 11] was 8261.5 ng･h/g, the Kp ([2]; 0.2 mg/kg i.p. single, juvenile FVB mice) was 5.8 and the Kp ([2]; 0.6 mg/kg i.p. single, juvenile FVB mice) was 4.8. It also gave a Kp ([2]; 2 mg/kg i.p. single, juvenile FVB mice) of 4.5, a Cmax [2, 9] of 10.5 ng/g and an MRT [2, 9] of 11.2 h. The Tmax [2, 9] was 0.5 h, the Cmax [2, 10] was 63.2 ng/g and the MRT [2, 10] was 11.8 h. The Tmax [2, 10] was 1 h, the Cmax [2, 11] was 219 ng/g and the MRT [2, 11] was 35.8 h. It also gave a Tmax [2, 11] of 1 h, a Cmax ([2]; plasma, 0.2 mg/kg i.p. single, juvenile (10-day-old) FVB mice, n = 3, pool) of 0.0022 µg/mL and an MRT [2, 12] of 7.21 h. The Tmax [2, 12] was 0.5 h, the Cmax [2, 13] was 0.0113 µg/mL and the MRT [2, 13] was 10.7 h. The Tmax [2, 13] was 0.5 h, the Cmax [2, 14] was 0.042 µg/mL and the MRT [2, 14] was 40.4 h. For the same compound, the Tmax [2, 14] was 3 h, the “AUC0–24 h” value [2, 12] was 15.2 ng･h/mL and the “AUC0–120 h” value [2, 12] was 15.2 ng･h/mL. The “AUC0–24 h” value [2, 13] was 129.9 ng･h/mL, the “AUC0–120 h” value [2, 13] was 149.1 ng･h/mL and the “AUC0–24 h” value [2, 14] was 718.6 ng･h/mL. For the same compound, the “AUC0–120 h” value [2, 14] was 1829.8 ng･h/mL.
